Source: patent US9642854B2, “Flavanoid compounds and process for preparation thereof” (Council of Scientific & Industrial Research, priority 2009, dated 2017)
≈ marks a conversion by molar mass, not a printed value. Entries after “also recorded” stand apart in the source; their conditions may differ.

What was measured:
H. pylori [1] = experiment: MIC and MBC by microbroth dilution assay; assay type: cell-based, Helicobacter pylori; conditions: for MBC / MIC: Helicobacter pylori
Experimental: The compounds, serially diluted ([…]) in Muller Hinton broth containing 5% FCS, were incubated in 96-well microtitre plate containing fresh cultures of HP001 (˜5.5×10^6 CFU/mL) or ATCC® 43504 (2.65×10^6 CFU/ml) in a final volume of […]. After 72-h of incubation under microaerophilic condition at 37° C., […] of cultures wherein no growth had been detected were streaked on fresh brain heart infusion agar plates for MBC determination.
In microbroth dilution assay employing one clinical and one standard strain, both the bacteriostatic and the bactericidal values were determined for all four compounds as well as for clarithromycin (Table 4). Two-fold serial dilutions were prepared in 96-well microtitre plate containing a total volume of 0.1 mL Mueller Hinton broth supplemented with 5% FCS. A 3-day old liquid culture was diluted 10 times in Mueller Hinton broth and 0.1 mL of these cultures was inoculated into each well to give a final concentration of ˜10^6 CFU/mL. The plates were incubated for 3 days in a microaerophilic atmosphere at 37° C. Following incubation, the plates were examined visually, and the lowest concentration showing complete inhibition of growth was recorded as the MIC of the respective compound (Hachem et al., 1996). Aliquots (0.1 mL) of 72-h culture in which no growth had been detected were taken from the wells of the above microtitre plates and used to streak on fresh BHI agar plates.

H. pylori [2] = experiment: Anti H. pylori screening by disc diffusion susceptibility assay; assay type: cell-based, Helicobacter pylori; conditions: 72 h; for Inhibition zone diameter (score): 100 and 200 mg/disc (so in the source)
Outline: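 Clinical strains HP001, HP002 and ATCC 700392, 43504, 49503 (10^8 CFU/mL) spread on supplemented BHI agar; 5 mm discs loaded with 100 and 200 […] compound in ethanol or DMSO. Zones read after 72 h microaerophilic growth at 37 °C; scored + (10-20 mm), ++ (20-30 mm), +++ (>30 mm), Nil <10 mm.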

H. pylori ATCC 43504 = experiment: Short time kill kinetics in shake culture at different pH; assay type: cell-based, Helicobacter pylori
gastric parietal cell = experiment: Histamine-stimulated acid secretion in gastric parietal cell ([14C]-aminopyrine uptake ratio); assay type: cell-based, rabbit; conditions: histamine 0.1 mM
Experimental: Dose-dependent inhibition of histamine-stimulated aminopyrine (AP) uptake ratio in parietal cell suspension after CPP-1 treatment was measured.
Parietal cells (PC) were isolated from New Zealand White rabbits (weighing ^˜2.5 kg) essentially according to Berglindh (1984) and as modified by Mazzeo et al. (1988). The PC preparations were nearly 90% pure and viable. The effect of CPP-1 on basal and histamine stimulated acid secretion in parietal cells was examined as follows. The PC suspension was incubated for 10 min at 37° C. with gentle stirring and continuous slow top gassing with oxygen. The [^14C]-aminopyrine (115 mCi/mmole) was added to the suspension at […], and incubation was continued for another 10 min. One-milliliter aliquot of PC (^˜5×10^6 cells) was added to various concentrations of CPP-1 in the presence and the absence of histamine (0.1 mM) and incubated for 20 min at 37° C. with slow shaking and oxygen top gassing. At the end of the incubation, the PC suspensions were centrifuged, supernatant carefully aspired off and the pellets solubilized in scintillation fluid containing Triton X-100. The resulting solution was counted in a liquid scintillation counter. The aminopyrine accumulation was determined as the ratio of intra- to extracellular aminopyrine according to Mazzeo et al. (1988).

H. pylori [3] = experiment: Time kill kinetic analyses in biphasic culture; assay type: cell-based, Helicobacter pylori
Swiss albino mice = experiment: Acute toxicity evaluation in mice; assay type: in vivo; conditions: up to 0.5 g/kg body weight orally, 15 days observation
Excerpt: Five animals of Swiss albino mice strain were used for this purpose. The dosage up to 0.5 g/kg body weight given orally per mice and the animals were kept for 15 days under observation. It was observed that the mice were not affected at the dose level of 0.5 g/kg body weight of CPP-1.

H. pylori [4] = experiment: Acid stability study (pH ~2.0, 2 h, then MIC/MBC by microbroth dilution); assay type: cell-based, Helicobacter pylori; conditions: for MBC / MIC: Helicobacter pylori
Experimental: Details of experimental protocol are described under Experiment 7. MIC/MBC values were determined by microbroth dilution assay.
A 100 μL stock of CPP-1, NMC-1, NMC-2 and CPP-3 (1-2 mg/mL) was treated with 20-30 μL of 0.12 NHCl to bring the pH of the solution to ^˜2.0, and kept at 25° C. for 2 h (Funatogawa et al., 2004). Such acid-treated samples were then serially diluted (2 fold) with medium in 96-well microtitre plates to determine the MIC and the MBC values by microbroth dilution assay as detailed under Experiment 3.

[5] = ATCC43504, microbroth dilution, ATCC 43504

SMILES: O=c1cc(-c2ccccc2)oc2cc(OCCCCCCN3CCCCC3)cc(O)c12 [CPP-1, 5-Hydroxy-2-phenyl-7-(6-piperidin-1-yl-hexyloxy)-chromen-4-one]
- MBC (H. pylori [1]; [5]): ~6.25 µg/mL (≈ 0.0148 mM)
- MIC (H. pylori [1]; [5]): ~6.25 µg/mL (≈ 0.0148 mM)
- MBC (H. pylori [1]; microbroth dilution, HP001): 12.5 µg/mL (≈ 0.0297 mM)
- MIC (H. pylori [1]; microbroth dilution, HP001): 6.25 µg/mL (≈ 0.0148 mM)
- MBC (H. pylori [1]; range over strains): 6.25 to 12.5 µg/mL (≈ 0.0148 to 0.0297 mM)
- MIC/MBC dose range (H. pylori [1]; dose range at which irreversible morphological deformation is induced): 6.25 to 12.5 µg/mL
- Inhibition zone diameter (score) (H. pylori [2]; ATCC standard strain 43504): ++ (20-30 mm as ^++)
- Inhibition zone diameter (score) (H. pylori [2]; ATCC standard strain 49503): +++ (that of >30 mm as ^+++)
- Inhibition zone diameter (score) (H. pylori [2]; ATCC standard strain 700392): ++ (20-30 mm as ^++)
- zone of inhibition at 100 µg/disc (H. pylori [2]; Helicobacter pylori, 100 and 200 μg/disc, majority of the strains, read-out: Activity class by inhibition zone diameter): > 30 mm
- Inhibition zone diameter (score) (H. pylori [2]; clinical strain HP001): ++ (20-30 mm as ^++)
- Inhibition zone diameter (score) (H. pylori [2]; clinical strain HP002): +++ (that of >30 mm as ^+++)
- decrease of growth (H. pylori ATCC 43504; 50 mg/mL (so in the source), pH 4.0, 5.0 and 6.0, short exposure): 3 log
- survival of bacteria (H. pylori ATCC 43504; 50 mg/mL (so in the source), pH 7.2): the bacteria survived
- rate of killing as function of pH (H. pylori ATCC 43504; 100 and 150 mg/mL (so in the source)): the rate of killing was found to increase as the pH of the media raised
- IC50 (gastric parietal cell; Oryctolagus cuniculus, rabbit gastric parietal cell): ~15 µg/mL
- activity relative to cimetidine, histamine-stimulated secretion (gastric parietal cell): more active than cimetidine
- fold less potent than omeprazole in inhibiting histamine-stimulated secretion (gastric parietal cell): about 5 fold
- decrease in cell count within 36 h (H. pylori [3]; ATCC 43504, 0.5×MIC (3.125 μg/mL)): f-log decrease in cell count
- time to complete killing (H. pylori [3]; ATCC 43504, 1×MIC (6.25 μg/mL)): ≤ 36 h
- time at which killing/inhibition became evident (H. pylori [3]; HP001, biphasic culture): ≤ 6 h
- killing at MIC dose (1×MIC) (H. pylori [3]; HP001, up to 36 h): not high enough to produce total bactericidal activity
- mortality (Swiss albino mice): did not show any mortality; also recorded: No mortality and behavioral abnormality was noted
- MBC (H. pylori [4]; 2 h, pH ~2.0, 2 h, 25° C., 43504, read-out: MBC, Acid treated): 25000 µg/mL (≈ 59.3 mM)
- MIC (H. pylori [4]; 2 h, pH ~2.0, 2 h, 25° C., 43504, read-out: MIC, Acid treated): 12500 µg/mL (≈ 29.7 mM)
- MBC (H. pylori [4]; 2 h, pH ~2.0, 2 h, 25° C., HP001, read-out: MBC, Acid treated): < 12500 µg/mL
- MIC (H. pylori [4]; 2 h, pH ~2.0, 2 h, 25° C., HP001, read-out: MIC, Acid treated): 12500 µg/mL (≈ 29.7 mM)
- MBC (H. pylori [4]; not acid treated, 43504, read-out: MBC, Control): < 6250 µg/mL
- MIC (H. pylori [4]; not acid treated, 43504, read-out: MIC, Control): 6250 µg/mL (≈ 14.8 mM)
- MBC (H. pylori [4]; not acid treated, HP001, read-out: MBC, Control): 12500 µg/mL (≈ 29.7 mM)
- MIC (H. pylori [4]; not acid treated, HP001, read-out: MIC, Control): 6250 µg/mL (≈ 14.8 mM)
- increase in MIC and MBC values upon exposure to acid (H. pylori [4]; pH 2.0 for 2 hours): about 2 fold
